Assay results as given in patent publication US7858635B2 (priority 2005, dated 2010).

Experiments:
M1 muscarinic receptor = biological target: T1, M1 muscarinic receptor (Homo sapiens, UniProt P11229); experiment: Functional mobilization of intracellular calcium (FLIPR, Fluo-3), M1-CHO cells; type: cell-based; details: compound nos. 1-454; for Emax: 100% efficacy is the maximum response obtained with the Carbachol control, read-out: M1 Efficacy; for M1 Activity: M1-CHO cells, calcium mobilization
T1 construct: expressed in transfected cells; host or cells: CHO cells (M1-CHO, under zeocin and G418 selection)
T1 sequence (P11229 1-460): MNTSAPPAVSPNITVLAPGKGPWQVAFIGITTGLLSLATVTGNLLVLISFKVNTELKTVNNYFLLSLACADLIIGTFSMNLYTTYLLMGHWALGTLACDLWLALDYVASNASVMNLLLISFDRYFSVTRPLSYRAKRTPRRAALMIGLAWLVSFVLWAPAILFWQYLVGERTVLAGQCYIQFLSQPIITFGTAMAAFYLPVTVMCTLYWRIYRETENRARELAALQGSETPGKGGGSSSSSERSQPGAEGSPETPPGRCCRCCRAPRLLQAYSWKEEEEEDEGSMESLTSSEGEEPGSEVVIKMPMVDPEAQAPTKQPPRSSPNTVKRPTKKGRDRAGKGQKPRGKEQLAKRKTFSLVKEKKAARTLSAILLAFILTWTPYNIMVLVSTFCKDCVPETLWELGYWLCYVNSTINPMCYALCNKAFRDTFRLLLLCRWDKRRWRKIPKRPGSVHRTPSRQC
Outline: (§1)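 Fluo-3 read-out, ex 488/em 540 nm, 60 sec on FLIPR 3. For agonist mode, compound added directly; for inhibition, 15 min compound pre-incubation before carbachol at EC80 (added as a 3× solution), or co-application. Buffer pH 7.4 with 1 mM probenecid; DMSO 0.5%.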

M4 muscarinic receptor = biological target: T2, M4 muscarinic receptor (Homo sapiens, UniProt P08173); experiment: Functional mobilization of intracellular calcium (FLIPR, Fluo-3), M4-CHO cells; type: cell-based; details: compound nos. 1-454; for Emax: 100% efficacy is the maximum response obtained with the Carbachol control, read-out: M4 Efficacy; for M4 Activity: M4-CHO cells, calcium mobilization
T2 construct: expressed in transfected cells; host or cells: CHO cells (M4-CHO, under puromycin, zeocin and blasticidin selection)
T2 sequence (P08173 1-479): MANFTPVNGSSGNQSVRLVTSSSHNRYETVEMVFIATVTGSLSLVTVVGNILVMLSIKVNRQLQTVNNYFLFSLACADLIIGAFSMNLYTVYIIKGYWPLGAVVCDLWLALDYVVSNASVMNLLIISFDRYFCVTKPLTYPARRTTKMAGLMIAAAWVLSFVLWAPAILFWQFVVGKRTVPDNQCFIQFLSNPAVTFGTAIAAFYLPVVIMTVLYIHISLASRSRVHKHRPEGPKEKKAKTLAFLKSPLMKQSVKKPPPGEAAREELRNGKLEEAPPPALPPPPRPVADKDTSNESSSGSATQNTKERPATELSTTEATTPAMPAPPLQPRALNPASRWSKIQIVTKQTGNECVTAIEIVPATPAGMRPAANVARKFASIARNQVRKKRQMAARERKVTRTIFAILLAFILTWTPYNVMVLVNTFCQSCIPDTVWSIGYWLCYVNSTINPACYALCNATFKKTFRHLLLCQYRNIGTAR
Outline: as §1

## C#CCOC(=O)N1CCC(CN2CCC3(CC2)CN(C(C)=O)c2ccc(F)cc23)CC1 [compound 316]
M1 muscarinic receptor
  Emax: < 65%
  M1 Activity: + (activity was measured to be greater than or equal to 3.0 μM)
M4 muscarinic receptor
  Emax: < 55%
  M4 Activity: + (activity was measured to be greater than or equal to 4.0 μM)

## CCOC(=O)N1CCC(N2CCC3(CC2)CN(C(=O)CC)c2ccc(F)cc23)CC1 [compound 317]
M1 muscarinic receptor
  Emax: < 65%
  M1 Activity: + (activity was measured to be greater than or equal to 3.0 μM)
M4 muscarinic receptor
  Emax: < 55%
  M4 Activity: + (activity was measured to be greater than or equal to 4.0 μM)

## CCOC(=O)N1C2CCC1CC(N1CCC3(CC1)CC(NC(C)=O)c1ccccc13)C2 (centres unmarked) [compound 318]
M1 muscarinic receptor
  Emax: 65 to 85%
  M1 Activity: +++ (activity was measured to be less than or equal to 0.7 μM)
M4 muscarinic receptor
  Emax: > 70%
  M4 Activity: +++ (activity was measured to be less than or equal to 0.1 μM)

## CCOC(=O)N1CCC(CN2CCC3(CC2)C(=O)Nc2ccccc23)CC1 [compound 319]
M1 muscarinic receptor
  Emax: < 65%
  M1 Activity: ++ (activity was measured to be between 0.7 μM and 3.0 μM)
M4 muscarinic receptor
  Emax: < 55%
  M4 Activity: + (activity was measured to be greater than or equal to 4.0 μM)

## CC(C)OC(=O)N1C2CCC1CC(N1CCC3(CC1)COc1ccc(F)cc13)C2 (centres unmarked) [compound 320]
M1 muscarinic receptor
  Emax: 65 to 85%
  M1 Activity: ++ (activity was measured to be between 0.7 μM and 3.0 μM)
M4 muscarinic receptor
  Emax: < 55%
  M4 Activity: + (activity was measured to be greater than or equal to 4.0 μM)

## CCOC(=O)N1CCC(N2CCC3(CC2)CN(C(=O)c2ccno2)c2ccc(F)cc23)CC1 [compound 321]
M1 muscarinic receptor
  Emax: 65 to 85%
  M1 Activity: ++ (activity was measured to be between 0.7 μM and 3.0 μM)
M4 muscarinic receptor
  Emax: 55 to 70%
  M4 Activity: + (activity was measured to be greater than or equal to 4.0 μM)

## CCOC(=O)N1C2CCC1CC(N1CCC3(CC1)CN(C(C)=O)c1c(F)cccc13)C2 (centres unmarked) [compound 322]
M1 muscarinic receptor
  Emax: < 65%
  M1 Activity: ++ (activity was measured to be between 0.7 μM and 3.0 μM)
M4 muscarinic receptor
  Emax: > 70%
  M4 Activity: +++ (activity was measured to be less than or equal to 0.1 μM)

## CC(=O)N[C@@H]1CC2(CCN([C@@H]3C[C@@H]4CC[C@@H]3C4)CC2)c2ccccc21 [compound 323]
M1 muscarinic receptor
  Emax: 65 to 85%
  M1 Activity: ++ (activity was measured to be between 0.7 μM and 3.0 μM)
M4 muscarinic receptor
  Emax: 55 to 70%
  M4 Activity: + (activity was measured to be greater than or equal to 4.0 μM)

## CCCC(=O)N1CC2(CCN(C3CCN(C(=O)OCC)CC3)CC2)c2cc(F)ccc21 [compound 324]
M1 muscarinic receptor
  Emax: 65 to 85%
  M1 Activity: ++ (activity was measured to be between 0.7 μM and 3.0 μM)
M4 muscarinic receptor
  Emax: 55 to 70%
  M4 Activity: + (activity was measured to be greater than or equal to 4.0 μM)

## Fc1ccc2c(c1)C1(CCN(C3CCCCC3)CC1)CN2 [compound 325]
M1 muscarinic receptor
  Emax: 65 to 85%
  M1 Activity: + (activity was measured to be greater than or equal to 3.0 μM)
M4 muscarinic receptor
  Emax: < 55%
  M4 Activity: + (activity was measured to be greater than or equal to 4.0 μM)

## CCOC(=O)N[C@H]1CC2(CCN(C[C@H]3C[C@H]4CC[C@H]3C4)CC2)c2ccccc21 [compound 326]
M1 muscarinic receptor
  Emax: < 65%
  M1 Activity: + (activity was measured to be greater than or equal to 3.0 μM)
M4 muscarinic receptor
  Emax: < 55%
  M4 Activity: + (activity was measured to be greater than or equal to 4.0 μM)

## CCOC(=O)N1CCC(CN2CCC3(CC2)C(=O)N(C)c2ccccc23)CC1 [compound 327]
M1 muscarinic receptor
  Emax: < 65%
  M1 Activity: + (activity was measured to be greater than or equal to 3.0 μM)
M4 muscarinic receptor
  Emax: < 55%
  M4 Activity: + (activity was measured to be greater than or equal to 4.0 μM)

## CCCC1CCC(N2CCC3(CC2)CNc2ccc(F)cc23)CC1 (centres unmarked) [compound 328]
M1 muscarinic receptor
  Emax: < 65%
  M1 Activity: ++ (activity was measured to be between 0.7 μM and 3.0 μM)
M4 muscarinic receptor
  Emax: 55 to 70%
  M4 Activity: + (activity was measured to be greater than or equal to 4.0 μM)

## CCCOC(=O)N1C2CCC1CC(N1CCC3(CC1)CN(C(=O)OC1CCC1)c1ccc(F)cc13)C2 (centres unmarked) [compound 329]
M1 muscarinic receptor
  Emax: 65 to 85%
  M1 Activity: +++ (activity was measured to be less than or equal to 0.7 μM)
M4 muscarinic receptor
  Emax: < 55%
  M4 Activity: + (activity was measured to be greater than or equal to 4.0 μM)

## CCOC(=O)N1CCC(N2CCC3(CC2)CN(C(=O)c2ccc(C)cc2)c2ccc(F)cc23)CC1 [compound 330]
M1 muscarinic receptor
  Emax: < 65%
  M1 Activity: + (activity was measured to be greater than or equal to 3.0 μM)
M4 muscarinic receptor
  Emax: < 55%
  M4 Activity: + (activity was measured to be greater than or equal to 4.0 μM)

## CCOC(=O)N1CCC(N2CCC3(CC2)CN(C(=O)c2ccccn2)c2ccc(F)cc23)CC1 [compound 331]
M1 muscarinic receptor
  Emax: < 65%
  M1 Activity: ++ (activity was measured to be between 0.7 μM and 3.0 μM)
M4 muscarinic receptor
  Emax: < 55%
  M4 Activity: + (activity was measured to be greater than or equal to 4.0 μM)

## Clc1ccc2c(c1)C1(CCN(C3CCCCCC3)CC1)CN2 [compound 333]
M1 muscarinic receptor
  Emax: < 65%
  M1 Activity: + (activity was measured to be greater than or equal to 3.0 μM)
M4 muscarinic receptor
  Emax: < 55%
  M4 Activity: + (activity was measured to be greater than or equal to 4.0 μM)

## CCCC1CCC(N2CCC3(CC2)CNc2ccccc23)CC1 (centres unmarked) [compound 334]
M1 muscarinic receptor
  Emax: < 65%
  M1 Activity: + (activity was measured to be greater than or equal to 3.0 μM)
M4 muscarinic receptor
  Emax: < 55%
  M4 Activity: + (activity was measured to be greater than or equal to 4.0 μM)

## CCOC(=O)N1CCC(N2CCC3(CC2)CN(C(=O)c2cc(C)oc2C)c2ccc(F)cc23)CC1 [compound 335]
M1 muscarinic receptor
  Emax: < 65%
  M1 Activity: + (activity was measured to be greater than or equal to 3.0 μM)
M4 muscarinic receptor
  Emax: < 55%
  M4 Activity: + (activity was measured to be greater than or equal to 4.0 μM)

## O=C(O[C@@H]1CCOC1)N1C2CCC1CC(N1CCC3(CC1)C(=O)Nc1ccccc13)C2 (some centres unmarked) [compound 336]
M1 muscarinic receptor
  Emax: < 65%
  M1 Activity: + (activity was measured to be greater than or equal to 3.0 μM)
M4 muscarinic receptor
  Emax: < 55%
  M4 Activity: + (activity was measured to be greater than or equal to 4.0 μM)

## CC(=O)N[C@H]1CC2(CCN(C3CC4CCC(C4)C3)CC2)c2ccccc21 (some centres unmarked) [compound 337]
M1 muscarinic receptor
  Emax: < 65%
  M1 Activity: + (activity was measured to be greater than or equal to 3.0 μM)
M4 muscarinic receptor
  Emax: < 55%
  M4 Activity: + (activity was measured to be greater than or equal to 4.0 μM)

## O=C(O[C@@H]1CCOC1)N1C2CCC1CC(N1CCC3(CC1)COc1ccc(F)cc13)C2 (some centres unmarked) [compound 338]
M1 muscarinic receptor
  Emax: < 65%
  M1 Activity: + (activity was measured to be greater than or equal to 3.0 μM)
M4 muscarinic receptor
  Emax: < 55%
  M4 Activity: + (activity was measured to be greater than or equal to 4.0 μM)

## CC(=O)N(C)[C@H]1CC2(CCN(C[C@H]3C[C@H]4CC[C@H]3C4)CC2)c2ccccc21 [compound 339]
M1 muscarinic receptor
  Emax: < 65%
  M1 Activity: + (activity was measured to be greater than or equal to 3.0 μM)
M4 muscarinic receptor
  Emax: < 55%
  M4 Activity: + (activity was measured to be greater than or equal to 4.0 μM)

## CCOC(=O)N1CCC(N2CCC3(CC2)CN(C(C)=O)c2ccc(OC)cc23)CC1 [compound 340]
M1 muscarinic receptor
  Emax: < 65%
  M1 Activity: ++ (activity was measured to be between 0.7 μM and 3.0 μM)
M4 muscarinic receptor
  Emax: < 55%
  M4 Activity: + (activity was measured to be greater than or equal to 4.0 μM)

## CCCC1CCC(N2CCC3(CC2)CNc2ccc(Cl)cc23)CC1 (centres unmarked) [compound 341]
M1 muscarinic receptor
  Emax: < 65%
  M1 Activity: + (activity was measured to be greater than or equal to 3.0 μM)
M4 muscarinic receptor
  Emax: < 55%
  M4 Activity: + (activity was measured to be greater than or equal to 4.0 μM)

## c1ccc2c(c1)NCC21CCN(CC2CCCCC2)CC1 [compound 342]
M1 muscarinic receptor
  Emax: 65 to 85%
  M1 Activity: +++ (activity was measured to be less than or equal to 0.7 μM)
M4 muscarinic receptor
  Emax: 55 to 70%
  M4 Activity: ++ (activity was measured to be between 0.1 μM and 4.0 μM)
